Laboratory results taken from paper PMC10169810, “Ligand-induced activation and G protein coupling of prostaglandin F2α receptor” (Nature Communications, 2023).
Where “and” joins values, the source holds several entries; their conditions need not be identical. Identical values can stand only once.

How the values were obtained:
FP = tested on: FP; set-up: method as in PMID 10785618; conditions: cited from earlier work
FP S118N = target: T1, FP S118N (Homo sapiens, UniProt P43088, S118N); assay: IP-One accumulation assay, FP S118N mutant; type: cell-based
T1 construct: Flag; expressed in transfected cells; host or cells: AD293 cells
T1 sequence (P43088 whole entry S118N): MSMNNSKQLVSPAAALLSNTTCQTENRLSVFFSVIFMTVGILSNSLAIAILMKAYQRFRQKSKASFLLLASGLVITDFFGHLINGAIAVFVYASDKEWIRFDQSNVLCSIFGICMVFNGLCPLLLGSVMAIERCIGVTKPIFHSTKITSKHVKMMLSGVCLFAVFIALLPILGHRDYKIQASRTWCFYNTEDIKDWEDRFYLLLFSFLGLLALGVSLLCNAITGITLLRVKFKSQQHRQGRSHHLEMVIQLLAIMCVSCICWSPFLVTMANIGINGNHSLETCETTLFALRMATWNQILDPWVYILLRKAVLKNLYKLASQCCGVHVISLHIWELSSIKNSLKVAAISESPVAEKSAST
Experimental: (§1) IP-One production was measured using the IP-One HTRF kit (Cisbio)[50]. Briefly, AD293 cells (Agilent) were grown to a density of 400,000–500,000 cells per mL and then […] with separate plasmids at a suitable concentration. The culture was collected by centrifugation 24 h after incubation at 37 °C in 5% CO2 with a Stimulation Buffer. The cell suspension was then dispensed in a white 384-well plate at a volume of 7 μl per well before adding 7 μl of ligands. The mixture was incubated for 1 h at 37 °C. IP-One-d2 and anti-IP-One Cryptate dissolved in Lysis Buffer (3 μl each) were subsequently added and incubated for 15-30 min at room temperature before measurement. Intracellular IP-One measurement was carried out with the IP-One HTRF kit and EnVision multi-plate reader (PerkinElmer) according to the manufacturer’s instructions. Data were normalized to the baseline response of the ligand. pEC50 Emin, and Emax for each curve were calculated by GraphPad Prism 8.0. ∆pEC50 equals pEC50 of agonists to specific Mutant minus pEC50 of agonists to WT. Data are presented as mean values ± SEM; n = 3 independent samples; n.s. no significant; *p < 0.05; **p < 0.01; ***p < 0.001.

FP Q297A = target: T2, FP Q297A (Homo sapiens, UniProt P43088, Q297A); assay: IP-One accumulation assay, FP Q297A mutant; type: cell-based; conditions: Q297A mutant vs WT FP; IP1 accumulation, AD293 cells; single values of n = 3 independent samples
T2 construct: Flag; expressed in transfected cells; host or cells: AD293 cells
T2 sequence (P43088 whole entry Q297A): as the sequence (P43088 whole entry S118N) above, with N118S, Q297A counted along it
Experimental: as §1

FP Y92A = target: T3, FP Y92A (Homo sapiens, UniProt P43088, Y92A); assay: IP-One accumulation assay, FP Y92A mutant; type: cell-based; conditions: Y92 mutant (alanine) vs WT FP
T3 construct: Flag; expressed in transfected cells; host or cells: AD293 cells
T3 sequence (P43088 whole entry Y92A): as the sequence (P43088 whole entry S118N) above, with Y92A, N118S counted along it
Experimental: as §1

FP S118A = target: T4, FP S118A (Homo sapiens, UniProt P43088, S118A); assay: IP-One accumulation assay, FP S118A mutant; type: cell-based
T4 construct: Flag; expressed in transfected cells; host or cells: AD293 cells
T4 sequence (P43088 whole entry S118A): as the sequence (P43088 whole entry S118N) above, with N118A counted along it
Experimental: as §1

FP M115A = target: T5, FP M115A (Homo sapiens, UniProt P43088, M115A); assay: IP-One accumulation assay, FP M115A mutant; type: cell-based; conditions: M115 to alanine vs WT FP
T5 construct: Flag; expressed in transfected cells; host or cells: AD293 cells
T5 sequence (P43088 whole entry M115A): as the sequence (P43088 whole entry S118N) above, with M115A, N118S counted along it
Experimental: as §1

FP I298A = target: T6, FP I298A (Homo sapiens, UniProt P43088, I298A); assay: IP-One accumulation assay, FP I298A mutant; type: cell-based; conditions: I298A mutant vs WT FP; IP1 accumulation, AD293 cells; single values of n = 3 independent samples
T6 construct: Flag; expressed in transfected cells; host or cells: AD293 cells
T6 sequence (P43088 whole entry I298A): as the sequence (P43088 whole entry S118N) above, with N118S, I298A counted along it
Experimental: as §1

FP S33A = target: T7, FP S33A (Homo sapiens, UniProt P43088, S33A); assay: IP-One accumulation assay, FP S33A mutant; type: cell-based; conditions: S33 to alanine vs WT FP
T7 construct: Flag; expressed in transfected cells; host or cells: AD293 cells
T7 sequence (P43088 whole entry S33A): as the sequence (P43088 whole entry S118N) above, with S33A, N118S counted along it
Experimental: as §1

FP I290A = target: T8, FP I290A (Homo sapiens, UniProt P43088, L290A); assay: IP-One accumulation assay, FP I290A mutant; type: cell-based; conditions: I290A mutant vs WT FP; IP1 accumulation, AD293 cells; single values of n = 3 independent samples
T8 construct: Flag; expressed in transfected cells; host or cells: AD293 cells
T8 sequence (P43088 whole entry L290A): as the sequence (P43088 whole entry S118N) above, with N118S, L290A counted along it
Experimental: as §1

EP1 = tested on: EP1; set-up: method as in PMID 10785618; conditions: cited from earlier work
EP3 = tested on: EP3; set-up: method as in PMID 10785618; conditions: cited from earlier work
FP F205A = target: T9, FP F205A (Homo sapiens, UniProt P43088, F205A); assay: IP-One accumulation assay, FP F205A mutant; type: cell-based; conditions: F205A mutant vs WT FP; IP1 accumulation, AD293 cells; single values of n = 3 independent samples
T9 construct: Flag; expressed in transfected cells; host or cells: AD293 cells
T9 sequence (P43088 whole entry F205A): as the sequence (P43088 whole entry S118N) above, with N118S, F205A counted along it
Experimental: as §1

FP T294A = target: T10, FP T294A (Homo sapiens, UniProt P43088, T294A); assay: IP-One accumulation assay, FP T294A mutant; type: cell-based
T10 construct: Flag; expressed in transfected cells; host or cells: AD293 cells
T10 sequence (P43088 whole entry T294A): as the sequence (P43088 whole entry S118N) above, with N118S, T294A counted along it
Experimental: as §1

FP S118F = target: T11, FP S118F (Homo sapiens, UniProt P43088, S118F); assay: IP-One accumulation assay, FP S118F mutant; type: cell-based; conditions: S118F mutant vs WT FP; IP1 accumulation, AD293 cells; single values of n = 3 independent samples
T11 construct: Flag; expressed in transfected cells; host or cells: AD293 cells
T11 sequence (P43088 whole entry S118F): as the sequence (P43088 whole entry S118N) above, with N118F counted along it
Experimental: as §1

FP F265A = target: T12, FP F265A (Homo sapiens, UniProt P43088, F265A); assay: IP-One accumulation assay, FP F265A mutant; type: cell-based; conditions: F265A mutant vs WT FP; IP1 accumulation, AD293 cells; single values of n = 3 independent samples
T12 construct: Flag; expressed in transfected cells; host or cells: AD293 cells
T12 sequence (P43088 whole entry F265A): as the sequence (P43088 whole entry S118N) above, with N118S, F265A counted along it
Experimental: as §1

FP R291A = target: T13, FP R291A (Homo sapiens, UniProt P43088, R291A); assay: IP-One accumulation assay, FP R291A mutant; type: cell-based; conditions: R291 mutant (alanine) vs WT FP
T13 construct: Flag; expressed in transfected cells; host or cells: AD293 cells
T13 sequence (P43088 whole entry R291A): as the sequence (P43088 whole entry S118N) above, with N118S, R291A counted along it
Experimental: as §1

FP W185A = target: T14, FP W185A (Homo sapiens, UniProt P43088, W185A); assay: IP-One accumulation assay, FP W185A mutant; type: cell-based; conditions: W185A mutant vs WT FP; IP1 accumulation, AD293 cells; single values of n = 3 independent samples
T14 construct: Flag; expressed in transfected cells; host or cells: AD293 cells
T14 sequence (P43088 whole entry W185A): as the sequence (P43088 whole entry S118N) above, with N118S, W185A counted along it
Experimental: as §1

FP T184A = target: T15, FP T184A (Homo sapiens, UniProt P43088, T184A); assay: IP-One accumulation assay, FP T184A mutant; type: cell-based; conditions: T184 mutant (alanine) vs WT FP
T15 construct: Flag; expressed in transfected cells; host or cells: AD293 cells
T15 sequence (P43088 whole entry T184A): as the sequence (P43088 whole entry S118N) above, with N118S, T184A counted along it
Experimental: as §1

∆pEC50 (pEC50 of agonist to mutant minus pEC50 to WT) (FP S118N; S118N mutant vs WT FP, IP1 accumulation, AD293 cells, single values of n = 3 independent samples): -1.0 and -1.1 and -1.2
effect of mutation on agonist potency (in words) (FP S118N; S118 to asparagine vs WT FP): significantly reduced the potency
∆pEC50 (pEC50 of agonist to mutant minus pEC50 to WT) (FP Q297A): -1.5 and -1.4
effect of mutation on agonist activity / potency (in words) (FP Y92A): significantly decreased the potency
∆pEC50 (pEC50 of agonist to mutant minus pEC50 to WT) (FP S118A; S118A mutant vs WT FP, IP1 accumulation, AD293 cells, single values of n = 3 independent samples): -1.0 and -0.9
effect of mutation on agonist potency (in words) (FP S118A; S118 to alanine vs WT FP): significantly reduced the potency
effect of mutation on agonist potency (in words) (FP M115A): significantly decreased the potency
∆pEC50 (pEC50 of agonist to mutant minus pEC50 to WT) (FP I298A): -1.8 and -2.1
effect of mutation on agonist affinity / potency (in words) (FP S33A): significantly decreased the potency
∆pEC50 (pEC50 of agonist to mutant minus pEC50 to WT) (FP I290A): -1.1 and -1.3 and -1.0
∆pEC50 (pEC50 of agonist to mutant minus pEC50 to WT) (FP F205A): -2.3 and -2.1 and -2.2
∆pEC50 (pEC50 of agonist to mutant minus pEC50 to WT) (FP T294A; T294A mutant vs WT FP, IP1 accumulation, AD293 cells, single values of n = 3 independent samples): -2.0 and -1.8 and -1.9
effect of mutation on agonist affinity / potency (in words) (FP T294A; T294 to alanine vs WT FP): significantly decreased the potency
∆pEC50 (pEC50 of agonist to mutant minus pEC50 to WT) (FP S118F): -1.0 and -0.9 and -0.8
∆pEC50 (pEC50 of agonist to mutant minus pEC50 to WT) (FP F265A): -2.5 and -2.2
effect of mutation on agonist activity / potency (in words) (FP R291A): significantly decreased the potency
∆pEC50 (pEC50 of agonist to mutant minus pEC50 to WT) (FP W185A): -2.9 and -2.7
effect of mutation on agonist activity / potency (in words) (FP T184A): significantly decreased the potency
Structure (SMILES): O=C(O)CCC/C=C\C[C@@H]1[C@@H](CC[C@@H](O)CCc2ccccc2)[C@H](O)C[C@@H]1O [LTPA, Latanoprost acid]
selectivity enhancement compared to PGF2α (FP; FP versus EP1 and EP3): more than 100 times
EC50 (FP; FP): 0.0036 µM
EC50 (EP1): 6.9 µM
EC50 (EP3): 17 µM
